Assays:
Type in all cases: cell-based, human
[1] = system: activation markers on CD4 cells; assay: Activation marker assays by flow cytometry
Description: The effect of FR901228 on the induction of various activation markers on CD4 cells is studied. In this regard, cells are labeled with one or more of the following antibodies: anti-human CD4 Ab (Immunotech, Fullerton, Calif.), FITC-coupled anti-human CD11a Ab (Pharmingen), FITC-coupled anti-human CD26 Ab (Pharmingen), FITC-coupled anti-human CD49d Ab (Coulter), FITC-coupled anti-human CD54 Ab (Pharmingen and Becton Dickinson), FITC-coupled anti-human CD95 Ab (Pharmingen), FITC-coupled anti-human CD134 Ab (Pharmingen), FITC-coupled anti-human CD25 Ab (Becton Dickinson, Fullerton, Calif.), FITC-coupled anti-human CD69 Ab (Becton Dickinson), FITC- or PE-coupled anti-human CD154 Ab (Becton Dickinson), or FITC- or PE- coupled IgG1 isotype control Ab. Cells, 2×10^5 are labeled for 20 minutes at 4° C. with 2 μl of each antibody in a final volume of 30 μl, washed and resuspended in 1% parformaldehyde (Sigma, St. Louis, Mo.). […] In contrast, CD69 induction is not affected by 100 ng/ml FR901228 (FIG. 5C).

[2] = system: IL-2 production by activated CD4 cells; assay: IL-2 ELISA of supernatants; conditions: ELISA after 24 h of 3×28 bead stimulation of purified CD4 cells; FIG. 6
Description: Cells are prepared as described above. Supernatants from cells stimulated 24 h are subjected to an IL-2 or TNF-α enzyme linked immunosorbant assay (ELISA) according to the manufacturer's instructions (Biosource International, Sunnyvale, Calif.).
To study the mechanism behind FR901228 inhibition of CD4 cell proliferation, IL-2 and TNF-α production by activated CD4 cells was analyzed. […] The reason for this difference is currently unknown.

[3] = system: activated T-cells (peripheral blood lymphocytes); assay: Proliferation inhibition assay, CFDA-SE staining; conditions: added at time 0 or 24, 72, 120 hours post-stimulation with 3×28 beads; day 6; FIG. 7
Description: Peripheral blood lymphocytes are prepared as described above, stimulated with 3×28 beads and stained with carboxyfluorescein diacetate succinimidyl ester (CFDA-SE) at day 6 post stimulation. Cell stimulation was carried out as indicated above and the cells were washed twice with PBS and resuspended in media and incubated with CFDA-SE (Molecular Probes, OR). After about 10 minutes of staining, the cells are washed with media and FPS and dye incorporation was measured. FR901228 was added at various time points post-stimulation, at time 0 or at 24, 72, and 120 hours post-stimulation. FIG. 7 depicts flow data generated by CFDA-SE staining. The y-axis sets forth mean fluoresence intensity, which relates to the inverse of cell growth.

[4] = system: CD154 on CD4 cells; assay: CD154 expression on CD4 cells with or without IL-2; conditions: 20 ng/ml added day three; 3×28 beads and/or 20 units/ml IL-2; read day 4; FIG. 9
Description: The effect of FR901228 on the induction of the CD154 activation marker on CD4 cells is studied. In this regard, cells are labeled with FITC-coupled anti-human CD4 Ab (Immunotech, Fullerton, Calif.), PE-coupled anti-human CD154 Ab (Becton Dickinson, Fullerton, Calif.), or FITC- or PE-coupled IgG1 isotype control Ab. Cells, 2×10^5 are labeled for 20 minutes at 4° C. with 2 μl of each antibody in a final volume of 30 μl, washed and resuspended in 1% parformaldehyde (Sigma, St. Louis, Mo.). The cells are stimulated for four days in the presence of 3×28 beads and/or 20 units/ml IL-2 or an anti-IL-2 antibody at day three, FR901228 is added to the culture at a concentration of 20 ng/ml. On day 4, mean fluorescence intensity is measured by flow cytometry.

[5] = system: CD4 cells; assay: Intracellular DNA content by propidium iodide staining (cell cycle); conditions: 3×28 beads 24 hours; 10 to 100 ng/ml; FIG. 12
Description: Unstimulated and stimulated (3×28 bead stimulation) CD4 cells were incubated with varying concentrations FR901228 and the intracellular DNA content was measured by staining with propidium iodide (PI) using standard procedures. In brief, the cells were stained with a mixture of 1 μg/ml PI and 0.03% saponin in PBS for about 20 to 30 minutes. […] Accordingly, FR901228 appears to inhibit the cell cycle of activated T-cells prior to entry of S-phase.

[6] = 3×28 beads, 20 ng/ml, FIGS. 8A–8B

C/C=C1\NC(=O)[C@H]2CSSCC/C=C/[C@H](CC(=O)N[C@H](C(C)C)C(=O)N2)OC(=O)[C@H](C(C)C)NC1=O [FR901228]
CD69 induction ([1]; 100 ng/ml, FIG. 5C): not affected
CD69 induction or activation induced downregulation of CD62L [1, 6]: no significant affect
induction of CD25, CD134, CD137w, CD154, CD11a, CD54, and CD95 on CD4 T-cells [1, 6]: inhibition
lowest concentration at which CD154 expression is strongly suppressed ([1]; after 3×28 bead stimulation, FIG. 5A): 10 ng/mL
lowest concentration at which CD25 expression is strongly suppressed ([1]; after 3×28 bead stimulation, FIG. 5B): 10 ng/mL
lowest concentration that markedly inhibits IL-2 production [2]: 10 ng/mL
cell growth of activated T-cells (CFDA-SE mean fluorescence intensity) [3]: inhibited
CD154 expression in presence or absence of IL-2 [4]: suppression of CD154 expression
DNA synthesis in stimulated CD4 cells [5]: DNA synthesis does not take place
